Data set [1] relates to B16 melanoma 4A5 cells. Briefly: Theophylline-stimulated melanogenesis inhibition (melanin content). The format is cell-based, murine. Conditions: 72 h; for Inhibition (%) of melanogenesis / inhibition at 3000 µM: 3000 µM; for IC50: theophylline (1 mM)-stimulated B16 melanoma 4A5 cells. The protocol: (§1) The effects on theophylline-stimulated melanogenesis and viability of B16 melanoma 4A5 cells were examined according to previously described protocols. Briefly, murine B16 melanoma 4A5 cells were seeded into 48-well plates in DMEM. After 24 h of culture, a test compound and theophylline (1 mM) were added and incubated for 72 h. The melanin content and cell viability were then measured. IC50 values were determined graphically.
Inhibition (%) was calculated using the following formula, where A and B indicate the optical density of the vehicle- and test compound-treated groups, respectively, and C indicates cell viability (%) (see below): Inhibition (%) = [(A − B)/A]/(C/100) × 100.

Data set [2] in a line: Cell viability of B16 melanoma 4A5 cells. In kind it is cell-based, murine. Conditions: mouse, B16 4A5 cells. As for the experimental part: as §1
Where [3] appears, read: theophylline-stimulated B16 4A5 cells.
The mark [4] stands for this setting: Mus musculus, theophylline-stimulated B16 4A5 cells.

The record followed here is article PMC5979531, “Structural Requirements of Alkylglyceryl-L-Ascorbic Acid Derivatives for Melanogenesis Inhibitory Activity” (International Journal of Molecular Sciences, 2018).

Molecules are shown by their SMILES.

For orientation: inhibition means the drop in the measured response relative to a control, in per cent. As usually defined, the IC50 is the midpoint of a concentration-inhibition curve. Read a high IC50 as a need for much substance. As usually defined, the viability is a read-out of living cells in per cent, often relative to untreated cells. For `O=C1O[C@H]([C@@H](O)CO)C(O)=C1O[C@H]1O[C@H](CO)[C@@H](O)[C@H](O)[C@H]1O` [2-O-α-D-Glucopyranosyl-AsA, reference compound], the “Inhibition (%) of melanogenesis” value in data set [1] (setting [3]) is reported as “significantly inhibit melanogenesis”. In addition, in data set [1] (setting [4]), the inhibition at 1000 µM is -8.9 ± 2.7% and the inhibition at 3000 µM is 15 ± 3.5%. Also, the IC50 in data set [1] (Mus musculus) is > 3000 µM. Besides, in data set [2], the viability at 72 h, 1000 µM is 107% and the viability at 72 h, 3000 µM was 108%.
As for `OC[C@H]1O[C@@H](Oc2ccc(O)cc2)[C@H](O)[C@@H](O)[C@@H]1O` [Arbutin, reference compound], in data set [1] (setting [4]), the inhibition at 100 µM amounted to 32.2 ± 3.4%, the inhibition at 300 µM was 22.3 ± 4.3%, the inhibition at 1000 µM was 63 ± 2.3% and the inhibition at 3000 µM came out at 94 ± 2.8%. Also, the IC50 in data set [1] (Mus musculus) amounted to 830 µM. Moreover, in data set [2], the viability at 72 h, 100 µM was found to be 92.2%; the viability at 72 h, 300 µM stood at 96%; the viability at 72 h, 1000 µM turned out to be 96.2%; the viability at 72 h, 3000 µM was determined as 106%.
On to `O=C1O[C@H]([C@H](O)CO)C(O)=C1O` [Erythrobic acid, reference compound], for which, in data set [1] (setting [4]), the inhibition at 100 µM is -22.9 ± 6.5%, the inhibition at 300 µM is -10.6 ± 4.8%, the inhibition at 1000 µM turned out to be 75.8 ± 4.2% and the inhibition at 3000 µM was 92.6 ± 15.3%. Also, in data set [2], the viability at 72 h, 100 µM amounted to 98.7%; the viability at 72 h, 300 µM stood at 94.8%; the viability at 72 h, 1000 µM came to 44.5%; the viability at 72 h, 3000 µM is 29.8%.
Turning to `Oc1ccc(O)cc1` [Hydroquinone, reference compound], the inhibition at 3 µM in data set [1] (Mus musculus, 3 µM, theophylline-stimulated B16 4A5 cells) came out at 37.4 ± 3.7%. Further, the inhibition at 10 µM in data set [1] (Mus musculus, 10 µM, theophylline-stimulated B16 4A5 cells) stood at 59.5 ± 3.7%. In addition, the inhibition at 30 µM in data set [1] (Mus musculus, 30 µM, theophylline-stimulated B16 4A5 cells) came out at 76.3 ± 2.1%. In data set [1] (Mus musculus), this molecule returned an IC50 of 8.7 µM. For the same molecule, in data set [2] (3 µM), the viability at 72 h, 3 µM was determined as 94.1%. The viability at 72 h, 10 µM in data set [2] (10 µM) was 85.2%. Also, in data set [2] (30 µM), the viability at 72 h, 30 µM turned out to be 64.3%.
As to `O=C1O[C@H]([C@@H](O)CO)C(O)=C1OP(=O)(O)O` [Magnesium L-ascorbyl-2-phosphate, reference compound], the “Inhibition (%) of melanogenesis” value in data set [1] (setting [3]) was “significantly inhibit melanogenesis”. In data set [1] (setting [4]), the inhibition at 1000 µM came out at 2.1 ± 4.1% and the inhibition at 3000 µM came out at 14.5 ± 1.3%. Further, the IC50 in data set [1] (Mus musculus) is > 3000 µM. In data set [2], the viability at 72 h, 1000 µM was determined as 126% and the viability at 72 h, 3000 µM is 92.8%.
With `O=C1O[C@H]([C@@H](O)CO)C(OCC(O)CO)=C1O` (stereo partly drawn) [compound 1, 3-O-(2,3-dihydroxypropyl)-AsA], in data set [1] (setting [4]), the inhibition at 100 µM is -11.8 ± 1.9%, the inhibition at 300 µM was -10.7 ± 1.1%, the inhibition at 1000 µM is -5 ± 2.9% and the inhibition at 3000 µM was 0.5 ± 2.5%. Besides, in data set [1] (Mus musculus), the IC50 was > 3000 µM. Further, in data set [2], the viability at 72 h, 100 µM came to 100%; the viability at 72 h, 300 µM was 96.8%; the viability at 72 h, 1000 µM was found to be 100%; the viability at 72 h, 3000 µM amounted to 108%.
Take `CCOC1=C(OCC(O)CO)[C@@H]([C@@H](O)CO)OC1=O` (stereo partly drawn) [compound 2, 3-O-(2,3-dihydroxypropyl)-2-O-ethyl-AsA]: in data set [1] (setting [4]), the inhibition at 100 µM was -28.1 ± 3.2%, the inhibition at 300 µM was -2.8 ± 3.6%, the inhibition at 1000 µM is -8.9 ± 2% and the inhibition at 3000 µM was determined as 40.4 ± 8.6%. In data set [1] (Mus musculus), the IC50 was > 3000 µM. Besides, in data set [2], the viability at 72 h, 100 µM was determined as 101%; the viability at 72 h, 300 µM was found to be 99.7%; the viability at 72 h, 1000 µM is 101%; the viability at 72 h, 3000 µM came to 104%.
With `CCCOC1=C(OCC(O)CO)[C@@H]([C@@H](O)CO)OC1=O` (stereo partly drawn) [compound 3, 3-O-(2,3-dihydroxypropyl)-2-O-propyl-AsA], in data set [1] (setting [4]), the inhibition at 100 µM is -2.1 ± 5.3%, the inhibition at 300 µM amounted to 8.2 ± 3.2%, the inhibition at 1000 µM came out at 2.5 ± 7.9% and the inhibition at 3000 µM was 35.9 ± 3.4%. In addition, in data set [1] (Mus musculus), the IC50 was > 3000 µM. Also, in data set [2], the viability at 72 h, 100 µM was 102%; the viability at 72 h, 300 µM was 98.2%; the viability at 72 h, 1000 µM is 94.5%; the viability at 72 h, 3000 µM came out at 95%.
On to `CCCCOC1=C(OCC(O)CO)[C@@H]([C@@H](O)CO)OC1=O` (stereo partly drawn) [compound 4, 2-O-butyl-3-O-(2,3-dihydroxypropyl)-AsA], for which, in data set [1] (setting [4]), the inhibition at 100 µM is -1.2 ± 0.8%, the inhibition at 300 µM was determined as 20.8 ± 10.6%, the inhibition at 1000 µM is 30.2 ± 5.1% and the inhibition at 3000 µM stood at 58.9 ± 2.7%. In addition, the IC50 in data set [1] (Mus musculus) amounted to 2220 µM. Also, in data set [2], the viability at 72 h, 100 µM is 94.5%; the viability at 72 h, 300 µM was 97.4%; the viability at 72 h, 1000 µM was 93.9%; the viability at 72 h, 3000 µM came to 88.7%.
Consider `CCCCCOC1=C(OCC(O)CO)[C@@H]([C@@H](O)CO)OC1=O` (stereo partly drawn) [compound 5, 3-O-(2,3-dihydroxypropyl)-2-O-pentyl-AsA], for which, in data set [1] (setting [4]), the inhibition at 100 µM was -14 ± 9.7%, the inhibition at 300 µM came out at 29.8 ± 8.1%, the inhibition at 1000 µM amounted to 45.9 ± 1.2% and the inhibition at 3000 µM worked out at 81.9 ± 3.3%. Besides, in data set [1] (Mus musculus), the midpoint of inhibition, the IC50, lay at 931 µM. In data set [2], the viability at 72 h, 100 µM came out at 118%; the viability at 72 h, 300 µM was 107%; the viability at 72 h, 1000 µM was determined as 105%; the viability at 72 h, 3000 µM came out at 78.7%.
Consider `O=C1O[C@H]([C@@H](O)CO)C(O)=C1OCC(O)CO` (stereo partly drawn) [compound 15, 2-O-(2,3-dihydroxypropyl)-AsA], for which, in data set [1] (setting [4]), the inhibition at 100 µM is -9.7 ± 1.2%, the inhibition at 300 µM was -4.8 ± 1%, the inhibition at 1000 µM is -2.3 ± 1.7% and the inhibition at 3000 µM is -6.1 ± 2.7%. Also, the IC50 in data set [1] (Mus musculus) was > 3000 µM. Also, in data set [2], the viability at 72 h, 100 µM was determined as 101%; the viability at 72 h, 300 µM turned out to be 102%; the viability at 72 h, 1000 µM was found to be 102%; the viability at 72 h, 3000 µM came out at 107%.
In the case of `CCOC1=C(OCC(O)CO)C(=O)O[C@@H]1[C@@H](O)CO` (stereo partly drawn) [compound 16, 2-O-(2,3-dihydroxypropyl)-3-O-ethyl-AsA], in data set [1] (setting [4]), the inhibition at 100 µM was -4.2 ± 2.3%, the inhibition at 300 µM is -5.4 ± 1.5%, the inhibition at 1000 µM is 12.1 ± 2.2% and the inhibition at 3000 µM was 42 ± 1.4%. Moreover, the IC50 in data set [1] (Mus musculus) was > 3000 µM. Besides, in data set [2], the viability at 72 h, 100 µM is 105%; the viability at 72 h, 300 µM came to 95.9%; the viability at 72 h, 1000 µM was found to be 95.9%; the viability at 72 h, 3000 µM amounted to 84%.
Turning to `CCCOC1=C(OCC(O)CO)C(=O)O[C@@H]1[C@@H](O)CO` (stereo partly drawn) [compound 17, 2-O-(2,3-dihydroxypropyl)-3-O-propyl-AsA], in data set [1] (setting [4]), the inhibition at 100 µM is -5.9 ± 3.3%, the inhibition at 300 µM was -3.9 ± 4.1%, the inhibition at 1000 µM worked out at 1.3 ± 4.2% and the inhibition at 3000 µM was 23.2 ± 5.6%. In addition, the IC50 in data set [1] (Mus musculus) is > 3000 µM. Also, in data set [2], the viability at 72 h, 100 µM came out at 98.4%; the viability at 72 h, 300 µM is 95.6%; the viability at 72 h, 1000 µM is 92%; the viability at 72 h, 3000 µM was found to be 82.9%.
On to `CCCCOC1=C(OCC(O)CO)C(=O)O[C@@H]1[C@@H](O)CO` (stereo partly drawn) [compound 18, 3-O-butyl-2-O-(2,3-dihydroxypropyl)-AsA], for which, in data set [1] (setting [4]), the inhibition at 100 µM came out at 0.2 ± 4.4%, the inhibition at 300 µM was found to be 36.3 ± 2.8%, the inhibition at 1000 µM came to 68 ± 2.1% and the inhibition at 3000 µM is 84.1 ± 1.4%. This molecule registered an IC50 in data set [1] (Mus musculus) of 473 µM. For the same molecule, in data set [2], the viability at 72 h, 100 µM is 99.8%; the viability at 72 h, 300 µM was 89.1%; the viability at 72 h, 1000 µM turned out to be 78.1%; the viability at 72 h, 3000 µM was determined as 70.6%.
